Common to all, as to format: cell-based
The target in one assay is T1, human TLR8 (Homo sapiens, UniProt Q9NR97).
T1 construct: host or cells: HEK-Blue cells (HEK293-derived reporter line)
T1 sequence (Q9NR97 27-1041): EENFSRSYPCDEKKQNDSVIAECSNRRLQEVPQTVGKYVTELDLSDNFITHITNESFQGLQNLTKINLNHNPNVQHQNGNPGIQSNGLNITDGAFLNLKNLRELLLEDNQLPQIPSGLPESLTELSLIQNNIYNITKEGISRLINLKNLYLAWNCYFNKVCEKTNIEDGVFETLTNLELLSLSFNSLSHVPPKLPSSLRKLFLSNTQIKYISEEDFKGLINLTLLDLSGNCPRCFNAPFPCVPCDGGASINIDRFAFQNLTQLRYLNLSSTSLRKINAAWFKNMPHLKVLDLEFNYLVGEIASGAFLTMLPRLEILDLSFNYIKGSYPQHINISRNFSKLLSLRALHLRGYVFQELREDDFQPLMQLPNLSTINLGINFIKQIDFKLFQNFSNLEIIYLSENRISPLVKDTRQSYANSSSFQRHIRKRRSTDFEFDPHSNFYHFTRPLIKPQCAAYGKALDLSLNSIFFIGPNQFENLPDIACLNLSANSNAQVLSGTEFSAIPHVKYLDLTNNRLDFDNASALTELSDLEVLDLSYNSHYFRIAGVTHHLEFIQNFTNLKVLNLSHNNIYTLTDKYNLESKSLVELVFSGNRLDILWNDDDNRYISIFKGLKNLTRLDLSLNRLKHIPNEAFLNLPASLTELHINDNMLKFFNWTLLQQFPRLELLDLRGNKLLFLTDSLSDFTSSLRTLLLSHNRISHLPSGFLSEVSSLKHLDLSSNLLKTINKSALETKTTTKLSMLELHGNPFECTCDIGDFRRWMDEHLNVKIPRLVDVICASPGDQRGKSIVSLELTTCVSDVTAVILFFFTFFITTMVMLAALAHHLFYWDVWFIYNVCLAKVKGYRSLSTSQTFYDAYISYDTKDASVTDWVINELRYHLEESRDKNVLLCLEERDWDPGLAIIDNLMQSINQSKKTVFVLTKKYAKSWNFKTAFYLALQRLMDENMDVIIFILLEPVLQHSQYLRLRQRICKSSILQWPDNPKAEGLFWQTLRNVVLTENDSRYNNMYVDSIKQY
Description: TLR7/8/9 Inhibition Reporter Assays (TLR8). Particulars: HEK-Blue cells overexpressing human TLR8, SEAP reporter, stimulated with TLR8 ligand R848. How it is done: (§1) HEK-Blue™-cells (Invivogen) overexpressing human TLR7, TLR8 or TLR9 receptors were used for screening inhibitors of these receptors using an inducible SEAP (secreted embryonic alkaline phosphatase) reporter gene under the control of the IFN-β minimal promoter fused to five NF-κB and AP-1-binding sites. Cells are seeded into Greiner 384 well plates (15000 cells per well) that are predispensed (by ECHO) with testing compounds in DMSO to yield a final dose response concentration range of 0.85 nM-[…]. After a 60 minute compound pre-treatment in 37° C. incubator, the cells are then stimulated with a TLR7 ligand (gardiquimod at a final concentration of […]), TLR8 ligand (R848 at a final concentration of […]) or TLR9 ligand (ODN2006 at a final concentration of 200 nM) to activate NF-κB and AP-1 which induce the production of SEAP. After a 22 hour incubation at 37° C., 5% CO2, SEAP levels are determined with the addition of HEK-Blue™ Detection reagent (Invivogen), a cell culture medium that allows for detection of SEAP, according to manufacturer's specifications. The percent inhibition is determined as the % reduction in the HEK-Blue signal present in wells treated with agonist plus DMSO alone compared to wells treated with a known inhibitor.
Background: A reporter such as luciferase makes a cellular process visible.

A further assay concerns the target T2, human TLR9 (Homo sapiens, UniProt Q9NR96).
T2 construct: host or cells: HEK-Blue cells (HEK293-derived reporter line)
T2 sequence (Q9NR96 26-1032): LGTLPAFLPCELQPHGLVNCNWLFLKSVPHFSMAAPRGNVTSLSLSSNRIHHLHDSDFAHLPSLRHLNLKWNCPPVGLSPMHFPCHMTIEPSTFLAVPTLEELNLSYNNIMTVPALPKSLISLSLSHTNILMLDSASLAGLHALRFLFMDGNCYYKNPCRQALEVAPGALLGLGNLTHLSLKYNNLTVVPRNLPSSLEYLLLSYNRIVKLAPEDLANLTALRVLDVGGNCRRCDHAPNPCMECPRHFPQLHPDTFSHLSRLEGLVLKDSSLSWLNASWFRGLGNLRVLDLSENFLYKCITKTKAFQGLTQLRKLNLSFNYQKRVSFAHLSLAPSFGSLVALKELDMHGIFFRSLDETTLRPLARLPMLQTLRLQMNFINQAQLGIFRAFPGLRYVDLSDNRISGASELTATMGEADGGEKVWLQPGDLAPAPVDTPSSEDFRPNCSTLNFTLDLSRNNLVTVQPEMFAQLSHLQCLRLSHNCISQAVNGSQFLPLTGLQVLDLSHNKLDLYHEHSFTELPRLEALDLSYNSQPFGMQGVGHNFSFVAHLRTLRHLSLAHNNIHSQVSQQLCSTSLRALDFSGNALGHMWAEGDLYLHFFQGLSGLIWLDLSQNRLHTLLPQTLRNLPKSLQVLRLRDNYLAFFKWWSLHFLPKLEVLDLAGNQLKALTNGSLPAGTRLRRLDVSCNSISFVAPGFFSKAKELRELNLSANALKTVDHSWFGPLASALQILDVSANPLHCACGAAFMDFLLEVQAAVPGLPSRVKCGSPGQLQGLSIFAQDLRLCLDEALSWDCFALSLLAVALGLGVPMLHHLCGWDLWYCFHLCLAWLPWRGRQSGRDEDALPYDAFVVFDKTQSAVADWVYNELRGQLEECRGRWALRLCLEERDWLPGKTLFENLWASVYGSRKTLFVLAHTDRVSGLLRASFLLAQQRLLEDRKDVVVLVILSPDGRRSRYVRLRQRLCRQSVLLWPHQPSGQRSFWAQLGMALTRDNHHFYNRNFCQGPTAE
As to the kind of experiment: TLR7/8/9 Inhibition Reporter Assays (TLR9). Particulars: HEK-Blue cells overexpressing human TLR9, SEAP reporter, stimulated with TLR9 ligand ODN2006. How it is done:
as §1

The target in a further assay is T3, human TLR7 (Homo sapiens, UniProt Q9NYK1).
T3 construct: host or cells: HEK-Blue cells (HEK293-derived reporter line)
T3 sequence (Q9NYK1 27-1049): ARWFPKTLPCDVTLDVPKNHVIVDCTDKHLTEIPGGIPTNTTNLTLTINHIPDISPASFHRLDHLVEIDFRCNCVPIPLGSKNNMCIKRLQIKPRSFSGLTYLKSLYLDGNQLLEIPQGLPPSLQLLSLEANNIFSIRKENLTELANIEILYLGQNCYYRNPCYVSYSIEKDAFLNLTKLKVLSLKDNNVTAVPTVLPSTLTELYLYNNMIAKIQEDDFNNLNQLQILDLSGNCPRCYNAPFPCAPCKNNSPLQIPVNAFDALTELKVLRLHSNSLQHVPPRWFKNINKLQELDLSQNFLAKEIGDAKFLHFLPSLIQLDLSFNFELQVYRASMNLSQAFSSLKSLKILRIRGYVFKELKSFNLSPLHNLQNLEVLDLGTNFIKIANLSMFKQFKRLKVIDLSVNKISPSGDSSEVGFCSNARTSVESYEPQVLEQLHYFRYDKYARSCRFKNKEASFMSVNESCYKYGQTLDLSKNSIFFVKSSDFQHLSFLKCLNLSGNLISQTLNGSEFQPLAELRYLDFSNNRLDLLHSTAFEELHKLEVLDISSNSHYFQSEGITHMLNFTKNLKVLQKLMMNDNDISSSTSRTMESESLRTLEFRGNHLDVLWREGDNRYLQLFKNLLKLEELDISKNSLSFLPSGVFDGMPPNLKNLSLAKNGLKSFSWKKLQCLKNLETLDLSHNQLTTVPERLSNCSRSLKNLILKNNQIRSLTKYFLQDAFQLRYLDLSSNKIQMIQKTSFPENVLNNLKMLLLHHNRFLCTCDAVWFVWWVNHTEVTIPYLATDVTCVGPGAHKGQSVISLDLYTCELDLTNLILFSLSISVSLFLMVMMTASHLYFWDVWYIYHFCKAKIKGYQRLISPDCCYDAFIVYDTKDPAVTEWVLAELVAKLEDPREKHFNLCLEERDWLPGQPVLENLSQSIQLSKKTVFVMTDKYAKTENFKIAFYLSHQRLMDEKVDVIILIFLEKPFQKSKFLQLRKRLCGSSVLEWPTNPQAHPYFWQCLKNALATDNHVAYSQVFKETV
Description: TLR7/8/9 Inhibition Reporter Assays (TLR7). As to conditions: HEK-Blue cells overexpressing human TLR7, SEAP reporter, stimulated with TLR7 ligand gardiquimod. How it is done:
as §1

Where only a bound is given, the exact number is not on record here.

The IC50 is the concentration at which inhibition is half-maximal. Low values mean greater potency in that assay, high ones weaker potency in that assay.

On to `COc1ccc(-c2nc3c(C)nc(-c4ccc(N5C[C@@H]6CN(C(C)C)C[C@@H]6C5)cc4)cc3n2C)cc1OC` [Example 59, 2-(3,4-dimethoxyphenyl)-6-(4-((3aR,6aS)-5-isopropylhexahydropyrrolo[3,4-c]pyrrol-2(1H)-yl)phenyl)-1,4-dimethyl-1H-imidazo[4,5-c]pyridine], for which the results for the IC50 against human TLR8, against human TLR9 and on human TLR7 were 21 µM, 0.024 µM and 1.7 µM, respectively.
In the same order, the values of `CC(C)N1CCC(N2CCC(c3cc4c(cn3)nc(-c3ccc(S(C)(=O)=O)cc3)n4C)CC2)CC1` [Example 30, 6-(1′-isopropyl-[1,4′-bipiperidin]-4-yl)-1-methyl-2-(4-(methylsulfonyl)phenyl)-1H-imidazo[4,5-c]pyridine] are over 25 µM, 1.4 µM and over 25 µM.
For `Cc1nc(-c2ccc(N3CC4(CCN(CC(C)C)CC4)C3)cc2)cc2c1nc(-c1ccc(S(C)(=O)=O)cc1)n2C` [Example 98, 6-(4-(7-isobutyl-2,7-diazaspiro[3.5]nonan-2-yl)phenyl)-1,4-dimethyl-2-(4-(methylsulfonyl)phenyl)-1H-imidazo[4,5-c]pyridine], the half-maximal inhibitory concentration (IC50) was over 50 µM against human TLR8, 0.063 µM against human TLR9 and 2.4 µM at human TLR7.
In the same order, the values of `COCCN1CC2(C1)CN(c1ccc(-c3cc4c(nc(-c5ccc(OC)c(OC)c5)n4C)c(C)n3)cc1)C2` [Example 101, 2-(3,4-dimethoxyphenyl)-6-(4-(6-(2-methoxyethyl)-2,6-diazaspiro[3.3]heptan-2-yl)phenyl)-1,4-dimethyl-1H-imidazo[4,5-c]pyridine] are over 50 µM, 0.085 µM and 1.8 µM.
On to `COCCN1CC2(CCN(c3ccc(-c4cc5c(nc(-c6ccc(OC)c(OC)c6)n5C)c(C)n4)cc3)CC2)C1` [Example 103, 2-(3,4-dimethoxyphenyl)-6-(4-(2-(2-methoxyethyl)-2,7-diazaspiro[3.5]nonan-7-yl)phenyl)-1,4-dimethyl-1H-imidazo[4,5-c]pyridine], for which the figures for the concentration for half-maximal inhibition (IC50) against human TLR8, against human TLR9 and at human TLR7 were over 50 µM, 0.14 µM and 1.7 µM, respectively.
In the same order, the values of `Cc1nc(-c2ccc(CN3CCC(N4CCCC4)CC3)cc2)cc2c1nc(-c1ccc(S(C)(=O)=O)cc1)n2C` [Example 46, 1,4-dimethyl-2-(4-(methylsulfonyl)phenyl)-6-(4-((4-(pyrrolidin-1-yl)piperidin-1-yl)methyl)phenyl)-1H-imidazo[4,5-c]pyridine] are 5.5 µM, 0.058 µM and 1 µM.
In the same order, the values of `COc1ccc(-c2nc3cnc(-c4ccc(N5CC6(C5)CN(C(C)C)C6)cc4)cc3n2C2CC2)cc1OC` [Example 84, 1-cyclopropyl-2-(3,4-dimethoxyphenyl)-6-(4-(6-isopropyl-2,6-diazaspiro[3.3]heptan-2-yl)phenyl)-1H-imidazo[4,5-c]pyridine] are 2.2 µM, 0.18 µM and 4.4 µM.
`Cn1c(-c2ccc(S(C)(=O)=O)cc2)nc2cnc(C3CCN(C4CCN(C5CC5)CC4)CC3)cc21` [Example 32, 6-(1′-cyclopropyl-[1,4′-bipiperidin]-4-yl)-1-methyl-2-(4-(methylsulfonyl)phenyl)-1H-imidazo[4,5-c]pyridine] showed an IC50 at human TLR9 of 0.13 µM.
Turning to `Cc1nc(-c2ccc(C(=O)NC3CN(Cc4ccccc4)C3)cc2)cc2c1nc(-c1ccc(S(C)(=O)=O)cc1)n2C` [Example 49, N-(1-benzylazetidin-3-yl)-4-(1,4-dimethyl-2-(4-(methylsulfonyl)phenyl)-1H-imidazo[4,5-c]pyridin-6-yl)benzamide], the IC50 on human TLR9 came out at 0.81 µM; at human TLR7, 5.5 µM.
The like results for `Cc1ccccc1C(=O)N1CCC(NCc2ccc(-c3cc4c(nc(-c5ccc(S(C)(=O)=O)cc5)n4C)c(C)n3)cc2)CC1` [Example 51, (4-((4-(1,4-dimethyl-2-(4-(methylsulfonyl)phenyl)-1H-imidazo[4,5-c]pyridin-6-yl)benzyl)amino)piperidin-1-yl)(o-tolyl)methanone] were, in that order, 2.3 µM and 6.6 µM.

The values are drawn from patent publication US20250163054A1, “SUBSTITUTED BICYCLIC HETEROARYL COMPOUNDS USEFUL AS INHIBITORS OF TLR9” (Bristol-Myers Squibb Company, priority 2022, published 2025).
